Three molecules from patent US20050124638A1, “Benzimidazoles and analogs thereof as antivirals” (priority 2003, published 2005) can be followed below.

The subject of this series is female mice. Briefly: Acute in vivo toxicity study. The settings on record: 5 or 45 mg/kg i.p. for 3 days. How it is done: In the study design, 3-4 female mice/group were dosed with 0, 5 or 45 mg/kg of IBIS00553642, IBIS000408094, or IBIS00405746 for 3 days (i.p.). Clinical signs, body weights, clinical pathology, organ weights, and histopathology endpoints were evaluated.
A single dose toxicity study was performed to investigate the toxicity of representative compounds. Briefly, 3-4 female mice per group were administered 0, 5, or 45 mg/kg drug (intraperitoneal) on consecutive days for 3 days. At the end of the study, mice were sacrificed, and clinical signs, body weights, clinical pathology, organ weights, and histopathology endpoints were evaluated. […] The gross findings at necropsy were minor and limited to discolorations in liver and kidney or large gallbladder in 4/18 mice (no dose response and unclear relationship to drug). […] There were no drug-related effects on clinical pathology.
As for `CN(C)CCCn1c(N)nc2ccc(OCCCN[C@@H]3CCN(Cc4ccccc4)C3)cc21` [IBIS00405746], the “Clinical Signs” value is given as “No significant toxicity at 5 mg/kg dose”.
On to `CC1CCCCN1CCCn1c(N)nc2ccc(OCCCN(C)Cc3ccccn3)cc21` (stereo not drawn) [IBIS00553642], for which the “Clinical Signs” value was “No significant toxicity at 5 and 45 mg/kg doses”.
Consider `CN(CCCOc1ccc2nc(N)n(CCCN3CCCCC3)c2c1)Cc1ccc[nH]1` [IBIS00408094], for which the “Clinical Signs” value is “No significant toxicity at 5 and 45 mg/kg doses”.
